Converted amounts (≈) assume the structure as drawn. Blank lines part the entries; values can stand above or below the compound they belong to.
Legend:
[1] = biological target: T1, Eukaryotic translation initiation factor 2-alpha kinase 3 (Homo sapiens, UniProt Q9NZJ5); assay: Inhibition of human His-tagged PERK expressed in Escherichia coli assessed as eIF2alpha phosphorylation by TR-FRET assay
T1 sequence (Q9NZJ5 whole entry): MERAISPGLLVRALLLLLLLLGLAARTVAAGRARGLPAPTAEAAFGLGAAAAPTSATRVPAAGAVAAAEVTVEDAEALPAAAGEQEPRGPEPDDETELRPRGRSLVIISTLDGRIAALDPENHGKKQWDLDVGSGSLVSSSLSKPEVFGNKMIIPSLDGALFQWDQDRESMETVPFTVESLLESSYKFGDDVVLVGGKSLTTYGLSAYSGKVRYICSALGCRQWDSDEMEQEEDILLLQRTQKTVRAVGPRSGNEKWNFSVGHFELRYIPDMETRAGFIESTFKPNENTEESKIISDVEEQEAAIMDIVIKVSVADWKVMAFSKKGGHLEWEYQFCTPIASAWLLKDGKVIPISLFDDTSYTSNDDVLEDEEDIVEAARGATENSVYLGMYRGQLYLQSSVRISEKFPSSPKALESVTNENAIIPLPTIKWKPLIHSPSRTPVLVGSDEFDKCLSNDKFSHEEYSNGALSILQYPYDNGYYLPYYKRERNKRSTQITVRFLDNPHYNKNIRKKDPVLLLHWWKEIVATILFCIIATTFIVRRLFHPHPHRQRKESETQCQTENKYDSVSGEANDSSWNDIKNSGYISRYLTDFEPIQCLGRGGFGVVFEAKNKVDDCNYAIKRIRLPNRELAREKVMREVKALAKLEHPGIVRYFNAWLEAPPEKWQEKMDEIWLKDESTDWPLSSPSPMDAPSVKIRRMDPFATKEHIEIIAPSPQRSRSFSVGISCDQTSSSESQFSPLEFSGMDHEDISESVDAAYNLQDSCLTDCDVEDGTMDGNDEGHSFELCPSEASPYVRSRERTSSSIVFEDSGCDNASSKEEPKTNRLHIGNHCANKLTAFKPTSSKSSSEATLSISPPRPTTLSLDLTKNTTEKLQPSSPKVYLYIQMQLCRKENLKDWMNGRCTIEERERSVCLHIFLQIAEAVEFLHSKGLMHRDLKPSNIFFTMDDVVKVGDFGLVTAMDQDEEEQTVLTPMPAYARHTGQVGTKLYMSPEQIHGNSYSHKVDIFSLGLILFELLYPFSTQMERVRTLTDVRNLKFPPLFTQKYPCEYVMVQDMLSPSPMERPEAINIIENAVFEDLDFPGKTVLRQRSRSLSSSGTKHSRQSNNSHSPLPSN

[2] = Aqueous solubility of the compound; type: physicochemical; details: buffer
[3] = Apparent permeability of the compound across apical to basolateral side in human Caco-2 cells; type: ADME, cell-based; details: read-out: permeability
[4] = Efflux ratio of apparent permeability in human Caco-2 cells; type: ADME, cell-based
[5] = Plasma protein binding in human; type: ADME, cell-free; details: read-out: PPB (converted)
[6] = Plasma protein binding in rat; type: ADME, cell-free; details: read-out: PPB (converted)
[7] = Plasma protein binding in mouse; type: ADME, cell-free; details: read-out: PPB (converted)
[8] = Plasma protein binding in dog; type: ADME, cell-free, Canis lupus familiaris; details: read-out: PPB (converted)
[9] = Half life in human hepatocytes; type: ADME, cell-based, Hepatocyte
[10] = Half life in rat hepatocytes; type: ADME, cell-based, Hepatocyte
[11] = Half life in mouse hepatocytes; type: ADME, cell-based, Hepatocyte
[12] = Half life in dog hepatocytes; type: ADME, cell-based, Canis lupus familiaris, Hepatocyte

IC50 [1]: 1.35 µM
SMILES: Cc1cc(NC(=O)Nc2ccccc2)ccc1-c1cnc(N)c(C(=O)NC(C)C)c1

IC50 [1]: 0.159 µM
SMILES: Cc1cc(NC(=O)[C@@](C)(O)c2ccccc2)ccc1-c1cnc(N)c(C(=O)NC(C)C)c1

IC50 [1]: 0.033 µM
SMILES: Cc1cc(NC(=O)[C@H](O)c2cc(F)cc(F)c2)ccc1-c1cnc(N)c(C(=O)NC(C)(C)C)c1

IC50 [1]: 0.003 µM
solubility [2]: 13 µM (≈ 5.89 µg/mL)
Papp A→B [3]: 220 nm/s
efflux ratio [4]: 2.8
fraction unbound [5]: 0.004
fraction unbound [6]: 0.013
fraction unbound [7]: 0.006
fraction unbound [8]: 0.006
half-life [9]: 4.32 h
half-life [10]: 0.2 h
half-life [11]: 0.783 h
half-life [12]: 3.73 h
SMILES: Cc1cc(NC(=O)[C@H](O)c2cccc(Cl)c2)ccc1-c1cnc(N)c(C(=O)NC(C)C)c1

IC50 [1]: 0.129 µM
SMILES: CNc1ncc(-c2ccc(NC(=O)[C@H](O)c3cc(F)cc(F)c3)cc2C)cc1C(=O)NC(C)C

IC50 [1]: 0.085 µM
SMILES: COc1cc(NC(=O)[C@H](O)c2cc(F)cc(F)c2)ccc1-c1cnc(N)c(C(=O)NC(C)C)c1

IC50 [1]: 1.46 µM
SMILES: Cc1cc(NC(=O)[C@H](N)c2ccccc2)ccc1-c1cnc(N)c(C(=O)NC(C)C)c1

IC50 [1]: 0.009 µM
SMILES: Cc1cc(NC(=O)[C@H](O)c2ccccc2)ccc1-c1cnc(N)c(C(=O)NC(C)C)c1

IC50 [1]: 0.599 µM
SMILES: Cc1cc(NC(=O)[C@H](O)c2cc(F)cc(F)c2)ccc1-c1cnc(N)c(C(=O)N(C)C)c1

IC50 [1]: 0.003 µM
solubility [2]: 37 µM (≈ 16.7 µg/mL)
Papp A→B [3]: 140 nm/s
efflux ratio [4]: 4.6
fraction unbound [5]: 0.024
fraction unbound [6]: 0.028
fraction unbound [7]: 0.028
fraction unbound [8]: 0.029
half-life [9]: 7.92 h
half-life [10]: 2.18 h
half-life [11]: 0.8 h
half-life [12]: > 16.7 h
SMILES: Cc1cc(NC(=O)[C@H](O)c2cc(F)cc(F)c2)ccc1-c1cnc(N)c(C(=O)NC2CC2)c1

IC50 [1]: 0.073 µM
SMILES: Cc1cc(NC(=O)Cc2ccccc2)ccc1-c1cnc(N)c(C(=O)NC(C)C)c1

IC50 [1]: 0.075 µM
SMILES: Cc1cc(NC(=O)[C@H](O)c2cc(F)cc(F)c2)ccc1-c1ccc(N)nc1

SMILES: Cc1cc(NC(=O)Oc2ccccc2)ccc1-c1cnc(N)c(C(=O)NC(C)C)c1
IC50 [1]: > 1 µM

IC50 [1]: 0.004 µM
solubility [2]: 48 µM (≈ 21.1 µg/mL)
Papp A→B [3]: 140 nm/s
efflux ratio [4]: 3.3
fraction unbound [5]: 0.019
fraction unbound [6]: 0.033
fraction unbound [7]: 0.028
fraction unbound [8]: 0.029
half-life [9]: 1.97 h
half-life [10]: 0.567 h
half-life [11]: 1.15 h
half-life [12]: 14.6 h
SMILES: CCNC(=O)c1cc(-c2ccc(NC(=O)[C@H](O)c3cc(F)cc(F)c3)cc2C)cnc1N

IC50 [1]: 0.005 µM
SMILES: Cc1cc(NC(=O)[C@H](O)c2cc(F)cc(F)c2)ccc1-c1cnc(N)c(C(=O)NC(C)C)n1

IC50 [1]: 0.13 µM
SMILES: Cc1cc(NC(=O)[C@](C)(O)c2ccccc2)ccc1-c1cnc(N)c(C(=O)NC(C)C)c1

IC50 [1]: > 1 µM
SMILES: CO[C@@H](C(=O)Nc1ccc(-c2cnc(N)c(C(=O)NC(C)C)c2)c(C)c1)c1ccccc1

IC50 [1]: > 1 µM
SMILES: Cc1cc(NC(=O)[C@H](O)c2cc(F)cc(F)c2)ccc1-c1cc(C(=O)NC(C)C)c(N)nn1

IC50 [1]: 0.006 µM
SMILES: CCc1cccc([C@@H](O)C(=O)Nc2ccc(-c3cnc(N)c(C(=O)NC(C)C)c3)c(C)c2)c1

IC50 [1]: 0.017 µM
SMILES: CC(C)NC(=O)c1cc(-c2ccc(NC(=O)[C@H](O)c3cc(F)cc(F)c3)cc2F)cnc1N

IC50 [1]: 0.026 µM
SMILES: Cc1cc(NC(=O)[C@@H](O)c2cc(F)cc(F)c2)ccc1-c1cnc(N)c(C(=O)NC(C)C)c1

IC50 [1]: 0.003 µM
SMILES: Cc1cccc([C@@H](O)C(=O)Nc2ccc(-c3cnc(N)c(C(=O)NC(C)C)c3)c(C)c2)c1

IC50 [1]: 0.241 µM
SMILES: Cc1cc(NC(=O)C(O)c2cc(F)cc(F)c2)ccc1-c1cnc(N)c(C(=O)O)c1 (centres undefined)

IC50 [1]: 0.009 µM
solubility [2]: 13 µM (≈ 6.17 µg/mL)
Papp A→B [3]: 240 nm/s
efflux ratio [4]: 2.5
fraction unbound [5]: 0.003
fraction unbound [6]: 0.007
fraction unbound [7]: 0.005
fraction unbound [8]: 0.005
half-life [9]: 9.48 h
half-life [10]: 0.2 h
half-life [11]: 0.4 h
half-life [12]: 7.18 h
SMILES: CC(C)NC(=O)c1cc(-c2ccc(NC(=O)[C@H](O)c3cc(F)cc(F)c3)cc2Cl)cnc1N

IC50 [1]: 0.027 µM
SMILES: Cc1cc(NC(=O)[C@H](O)c2cc(F)cc(F)c2)ccc1-c1cncc(C(=O)NC(C)C)c1

IC50 [1]: 0.023 µM
SMILES: CC(C)NC(=O)c1cc(-c2ccc(NC(=O)[C@H](O)c3cc(F)cc(F)c3)cc2)cnc1N

IC50 [1]: 0.019 µM
SMILES: Cc1cc(NC(=O)[C@H](O)c2cc(F)cc(F)c2)ccc1-c1cnc(N)c(C(=O)OC(C)C)c1

IC50 [1]: 0.008 µM
SMILES: CNC(=O)c1nc(-c2ccc(NC(=O)[C@H](O)c3cc(F)cc(F)c3)cc2C)cnc1N

IC50 [1]: 0.014 µM
SMILES: CNC(=O)c1cc(-c2ccc(NC(=O)[C@H](O)c3cc(F)cc(F)c3)cc2C)cnc1N

IC50 [1]: 0.068 µM
SMILES: Cc1cc(NC(=O)[C@H](O)c2cc(F)cc(F)c2)ccc1-c1cnc(C)c(C(=O)NC(C)C)c1
